For the assay, the system named is HeLa cells. Nature of the assay: Evaluation of cell membrane permeability by flow cytometry (FAM fluorescence) in HeLa cells. Type of assay: cell-based, human. As to conditions: 20-hour incubation; for MFI (mean fluorescent intensity): 10 μM in culture medium, 0.5% DMSO, FL2 fluorescence detector; for introduction of the fluorescent dye (FAM) into the cytoplasm, from the histogram shift (FIG. 1), compared with Example 3 (FAM only): histogram of fluorescent intensity vs cell count. The protocol:
The cell membrane permeability of sample 1 and sample 2 was evaluated using HeLa cells (an established cell line derived from human cervical cancer cells) as the eukaryotic cells.
HeLa cells were cultured on DMEM (Dulbecco's modified Eagle's medium (Cat. No. 043-30085, from FUJIFILM Wako Pure Chemical Corporation)) containing 10% FBS (fetal bovine serum), which is a general culture medium.
The HeLa cells attached to the culture plate were washed with PBS, a 0.25% trypsin/EDTA solution was then added, and incubation was carried out for 3 minutes at 37° C. After this incubation, the aforementioned DMEM containing 10% FBS was added and the trypsin was inactivated, and the cells were then sedimented by carrying out centrifugal separation for 5 minutes at 150×g. The supernatant produced by the centrifugal separation was removed, and the aforementioned DMEM containing 10% FBS was added to the sediment (cell pellet) to prepare a cell suspension containing approximately 1×10^5 cells/mL. The cells were seeded (approximately 2×10^5 cells/well) by the addition of 2 mL of this cell suspension to the wells of a commercial 6-well plate ((Iwaki microplate commercially available from AGC techno glass Co., Ltd). The cells were attached to the well bottom by culture for 3 hours at 37° C. under the condition of 5% CO2.
The 2 mM sample solution 1 was then diluted with the aforementioned DMEM containing 10% FBS to prepare a sample solution 1 in which the sample 1 concentration was 20 μM. After the aforementioned 3-hour culture, 1 mL of the culture supernatant was removed from the wells, followed by the addition to the wells of 1 mL of the 20 μM sample solution 1 (i.e., the concentration of sample 1 in the culture medium in the wells was brought to 10 μM and the DMSO concentration was brought to 0.5%). The cells were incubated for 20 hours at 37° C. under the condition of 5% CO2. After this 20-hour incubation, the culture supernatant was removed from the wells and the cells in the wells were washed twice with 1 mL PBS. 200 μL of 0.25% trypsin/EDTA was then added to the wells and incubation was carried out for 3 minutes at 37° C. After this incubation, the trypsin was inactivated by the addition of 400 μL of the aforementioned DMEM containing 10% FBS to the wells, and the cells were subsequently recovered by transferring the cell suspensions in the wells to a tube. The wells were then washed by the further addition of 600 μL PBS to the wells. The cells that had remained in the wells were recovered to the tube by transferring the PBS in the wells to the tube. Centrifugal separation was run on this tube for 5 minutes using conditions of 4° C. and 210×g. After the centrifugal separation, the supernatant was removed, the sediment (cell pellet) was suspended (washed) with 1 mL of PBS, and centrifugal separation was carried out using the same conditions as before. After this procedure has been repeated twice, the supernatant was removed to obtain cells (cell pellet) that had been cultured on a sample 1-containing culture medium.
The cell permeability of sample 1 was analyzed using the resulting cells (cell pellet) and a flow cytometer. An On-Chip Flow Cytometer (On-chip Biotechnologies Co., Ltd.) was used for the flow cytometer.
For this analysis, the cell pellet obtained as described above was suspended in 50 μL PBS. To this suspension was added 50 μL of 2×Sample Buffer for use with the indicated flow cytometer to prepare a cell suspension for submission to analysis.
Gating was performed using this flow cytometer based on forward scatter (FSC) and side scatter (SSC); the gating was set for the cell population that was the target of the analysis; and the fluorescent intensity was measured for the cell population within this gating. The analysis was performed so this cell population reached approximately 10,000. […]
A general note: In flow cytometry, cells or beads pass a laser one at a time.

The results in this text go back to US11814448B2, “Carrier peptide fragment and use thereof” (TOAGOSEI CO., LTD., priority 2020, dated 2023).

FAM = FAM fluorescent dye

With 5(6)-carboxyfluorescein [Example 3], the “MFI (mean fluorescent intensity)” value is recorded as 5.9.

“FAM-KKRTLRKNDRKKR-CONH2 ({FAM}-KKRTLRKNDRKKR-NH2) [Example 2]”: the “MFI (mean fluorescent intensity)” value is 10.5. In addition, the “introduction of the fluorescent dye (FAM) into the cytoplasm, from the histogram shift (FIG. 1), compared with Example 3 (FAM only)” value (10 μM) was “more efficiently introduced”.

Consider “FAM-VVRSLVKVVRSLVK-CONH2 ({FAM}-VVRSLVKVVRSLVK-NH2) [Example 1]”, for which the “MFI (mean fluorescent intensity)” value is listed as 690. The “introduction of the fluorescent dye (FAM) into the cytoplasm, from the histogram shift (FIG. 1), compared with Example 3 (FAM only)” value (10 μM) is “more efficiently introduced”. Moreover, the “efficiency (cell membrane permeability) compared using the MFI, Example 1 versus Example 2” value (10 μM, ratio of MFI values of Table 3) was “approximately 65.7 times”.
